Assays:
Assay type in all cases: in vivo
[1] = tested on: Diabrotica balteata (Corn Root Worm); experiment: Example B1: Diabrotica balteata (corn root worm), sprayed maize sprouts on agar, L2 larvae; details: 96 h, application rate of 200 ppm, 4 days after infestation, in comparison to untreated samples, read-out: effect in at least one of the two categories (mortality or growth inhibition)
Procedure: Example B1: Diabrotica balteata (Corn Root Worm
Maize sprouts placed onto an agar layer in 24-well microtiter plates were treated with aqueous test solutions prepared from 10′000 ppm DMSO stock solutions by spraying. After drying, the plates were infested with L2 larvae (6 to 10 per well). The samples were assessed for mortality and growth inhibition in comparison to untreated samples 4 days after infestation.

[2] = tested on: Plutella xylostella (Diamond Back Moth); experiment: Example B4: Plutella xylostella (diamond back moth), treated artificial diet, eggs; details: 192 h, application rate of 200 ppm, 8 days after infestation, in comparison to untreated samples, read-out: effect in at least one of the two categories (mortality or growth inhibition)
Procedure: Example B4: Plutella xylostella (Diamond Back Moth
24-well microtiter plates with artificial diet were treated with aqueous test solutions prepared from 10′000 ppm DMSO stock solutions by pipetting. After drying, Plutella eggs were pipetted through a plastic stencil onto a gel blotting paper and the plate was closed with it. The samples were assessed for mortality and growth inhibition in comparison to untreated samples 8 days after infestation.

[3] = tested on: Spodoptera littoralis (Egyptian Cotton Leaf Worm); experiment: Example B7: Spodoptera littoralis (Egyptian cotton leaf worm), sprayed cotton leaf discs, L1 larvae; details: foliar, 72 h, application rate of 200 ppm, 3 days after infestation, in comparison to untreated samples
Procedure: Example B7: Spodoptera littoralis (Egyptian Cotton Leaf Worm
Cotton leaf discs were placed onto agar in 24-well microtiter plates and sprayed with aqueous test solutions prepared from 10′000 ppm DMSO stock solutions. After drying the leaf discs were infested with five L1 larvae. The samples were assessed for mortality, anti-feeding effect, and growth inhibition in comparison to untreated samples 3 days after infestation. Control of Spodoptera littoralis by a test sample is given when at least one of the categories mortality, anti-feedant effect, and growth inhibition is higher than the untreated sample.

Structure (SMILES) | percent effect (mortality or growth inhibition) at 200 ppm [1] | percent effect (mortality or growth inhibition) at 200 ppm [2] | percent control (mortality, anti-feeding effect or growth inhibition) at 200 ppm [3]
CCS(=O)(=O)c1cc(N(C)C(C)=O)cnc1-c1nc2cc(S(=N)(=O)C(F)(F)F)ccc2o1 (stereo not shown) [P4, N-[5-ethylsulfonyl-6-[5-(trifluoromethylsulfonimidoyl)-1,3-benzoxazol-2-yl]-3-pyridyl]-N-methyl-acetamide] | ≥ 80% | ≥ 80% | ≥ 80%
CCN=S(=O)(c1ccc2oc(-c3ncc(-n4ccc(C(F)(F)F)n4)cc3S(=O)(=O)CC)nc2c1)C(F)(F)F (stereo not shown) [P5, ethylimino-[2-[3-ethylsulfonyl-5-[3-(trifluoromethyl)pyrazol-1-yl]-2-pyridyl]-1,3-benzoxazol-5-yl]-oxo-(trifluoromethyl)-λ^6-sulfane] | ≥ 80% | ≥ 80% | –
CCS(=O)(=O)c1cc(-n2ccc(C(F)(F)F)n2)cnc1-c1nc2cc(S(=N)(=O)C(F)(F)F)ccc2o1 (stereo not shown) [P6, [2-[3-ethylsulfonyl-5-[3-(trifluoromethyl)pyrazol-1-yl]-2-pyridyl]-1,3-benzoxazol-5-yl]-imino-oxo-(trifluoromethyl)-λ^6-sulfane] | ≥ 80% | ≥ 80% | ≥ 80%
CCS(=O)(=O)c1cccnc1-c1nc2cc(S(=O)(=NCC(F)(F)F)C(F)(F)F)ccc2o1 (stereo not shown) [P14, [2-(3-ethylsulfonyl-2-pyridyl)-1,3-benzoxazol-5-yl]-oxo-(2,2,2-trifluoroethylimino)-(trifluoromethyl)-λ^6-sulfane] | ≥ 80% | ≥ 80% | ≥ 80%
CCS(=O)(=O)c1cccnc1-c1nc2cc(S(=O)(=NC#N)C(F)(F)F)ccc2o1 (stereo not shown) [P15, [[2-(3-ethylsulfonyl-2-pyridyl)-1,3-benzoxazol-5-yl]-oxo-(trifluoromethyl)-λ^6-sulfanylidene]cyanamide] | ≥ 80% | ≥ 80% | –
CCS(=O)(=O)c1cc(OCC(F)(F)F)cnc1-c1nc2cc(S(=N)(=O)C(F)(F)F)ccc2o1 (stereo not shown) [P23, [2-[3-ethylsulfonyl-5-(2,2,2-trifluoroethoxy)-2-pyridyl]-1,3-benzoxazol-5-yl]-imino-oxo-(trifluoromethyl)-λ^6-sulfane] | ≥ 80% | ≥ 80% | ≥ 80%
CCS(=O)(=O)c1cc(C2(C#N)CC2)cnc1-c1nc2cc(S(=O)(=NCC(F)(F)F)C(F)(F)F)ccc2o1 (stereo not drawn) [P28, 1-[5-ethylsulfonyl-6-[5-[N-(2,2,2-trifluoroethyl)-S-(trifluoromethyl)sulfonimidoyl]-1,3-benzoxazol-2-yl]-3-pyridyl]cyclopropanecarbonitrile] | ≥ 80% | ≥ 80% | ≥ 80%
CCN=S(=O)(c1ccc2oc(-c3nc(-n4cncn4)ccc3S(=O)(=O)CC)nc2c1)C(F)(F)F (stereo not shown) [P39, ethylimino-[2-[3-ethylsulfonyl-6-(1,2,4-triazol-1-yl)-2-pyridyl]-1,3-benzoxazol-5-yl]-oxo-(trifluoromethyl)-λ^6-sulfane] | ≥ 80% | – | –
CCS(=O)(=O)c1ccc(-n2cncn2)nc1-c1nc2cc(S(=N)(=O)C(F)(F)F)ccc2o1 (stereo not shown) [P56, [2-[3-ethylsulfonyl-6-(1,2,4-triazol-1-yl)-2-pyridyl]-1,3-benzoxazol-5-yl]-imino-oxo-(trifluoromethyl)-λ^6-sulfane] | ≥ 80% | ≥ 80% | –

— US12503461B2, “Pesticidally active heterocyclic derivatives with sulfur and sulfoximine containing substituents” (SYNGENTA CROP PROTECTION AG, priority 2019, dated 2025)
